Activity and IC50 data for 11 molecules are collected here from ChEMBL document CHEMBL2074031, “Inhibitory effects of CYP3A4 substrates and their metabolites on P-glycoprotein-mediated transport” (Eur J Pharm Sci, 2001).

Molecules are shown by their SMILES.

Holding throughout (type): functional, cell-based
The target in series [1] is T1, ATP-dependent translocase ABCB1 (Homo sapiens, UniProt P08183). The series is described as follows: TP_TRANSPORTER: inhibition of Digoxin transepithelial transport (basal to apical) (Digoxin: 0.025 uM, Oxidized nifedipine: 50 uM) in MDR1-expressing LLC-PK1 cells. The following applies: pig, llc-pk1, 50 µM.
The target of series [2] is T1, ATP-dependent translocase ABCB1. As to the kind of experiment: TP_TRANSPORTER: inhibition of Daunorubicin transepithelial transport (basal to apical) (Daunorubicin: 0.035 uM, Oxidized nifedipine: 50 uM) in MDR1-expressing LLC-PK1 cells. The following applies: pig, llc-pk1, 50 µM.
Series [3] shares this target. The series is described as follows: TP_TRANSPORTER: inhibition of Daunorubicin transepithelial transport (basal to apical)(Daunorubicin: 0.035 uM, 4-hydroxymidazolam: 50 uM) in MDR1-expressing LLC-PK1 cells. The following applies: pig, llc-pk1, 50 µM.
For series [4] the target is unchanged. As to the kind of experiment: TP_TRANSPORTER: inhibition of Digoxin transepithelial transport (basal to apical)(Digoxin: 0.025 uM, 6-hydroxyazelastine: 50 uM) in MDR1-expressing LLC-PK1 cells. The following applies: pig, llc-pk1, 50 µM.
The target is the same in series [5]. The series is described as follows: TP_TRANSPORTER: inhibition of Daunorubicin transepithelial transport (basal to apical)(Daunorubicin: 0.035 uM, 6-hydroxyazelastine: 50 uM) in MDR1-expressing LLC-PK1 cells. The following applies: pig, llc-pk1, 50 µM.
The target is the same in series [6]. The series is described as follows: TP_TRANSPORTER: inhibition of Digoxin transepithelial transport (basal to apical)(Digoxin: 0.025 uM, 6beta-hydroxytestosterone: 50 uM) in MDR1-expressing LLC-PK1 cells. The following applies: pig, llc-pk1, 50 µM.
Series [7] has the same target. The series is described as follows: TP_TRANSPORTER: inhibition of Daunorubicin transepithelial transport (basal to apical)(Daunorubicin: 0.035 uM, 6beta-hydroxytestosterone: 50 uM) in MDR1-expressing LLC-PK1 cells. The following applies: pig, llc-pk1, 50 µM.
Series [8] has the same target. The series is described as follows: TP_TRANSPORTER: inhibition of Digoxin transepithelial transport (basal to apical)(Digoxin: 0.025 uM, 1'-hydroxymidazolam: 50 uM) in MDR1-expressing LLC-PK1 cells. The following applies: pig, llc-pk1, 50 µM.
The target is the same in series [9]. As to the kind of experiment: TP_TRANSPORTER: inhibition of Daunorubicin transepithelial transport (basal to apical)(Daunorubicin: 0.035 uM, 1'-hydroxymidazolam: 50 uM) in MDR1-expressing LLC-PK1 cells. The following applies: pig, llc-pk1, 50 µM.
The target is the same in series [10]. As to the kind of experiment: TP_TRANSPORTER: inhibition of Digoxin transepithelial transport (basal to apical) (Digoxin: 0.025 uM) in MDR1-expressing LLC-PK1 cells.
The target is the same in series [11]. The series is described as follows: TP_TRANSPORTER: inhibition of Daunorubicin transepithelial transport (basal to apical) (Daunorubicin: 0.035 uM) in MDR1-expressing LLC-PK1 cells.
The target is the same in series [12]. As to the kind of experiment: TP_TRANSPORTER: inhibition of Digoxin transepithelial transport (basal to apical)(Digoxin: 0.025 uM, Midazolam: 50 uM) in MDR1-expressing LLC-PK1 cells. The following applies: pig, llc-pk1, 50 µM.
The target is the same in series [13]. The series is described as follows: TP_TRANSPORTER: inhibition of Daunorubicin transepithelial transport (basal to apical)(Daunorubicin: 0.035 uM, Midazolam: 50 uM) in MDR1-expressing LLC-PK1 cells. The following applies: pig, llc-pk1, 50 µM.
Series [14] has the same target. As to the kind of experiment: TP_TRANSPORTER: inhibition of Daunorubicin transepithelial transport (basal to apical) (Daunorubicin: 0.035 uM, Nifedipine: 50 uM) in MDR1-expressing LLC-PK1 cells. The following applies: pig, llc-pk1, 50 µM.
For series [15] the target is unchanged. As to the kind of experiment: TP_TRANSPORTER: inhibition of Digoxin transepithelial transport (basal to apical)(Digoxin: 0.025 uM, Testosterone: 50 uM) in MDR1-expressing LLC-PK1 cells. The following applies: pig, llc-pk1, 50 µM.
Series [16] has the same target. As to the kind of experiment: TP_TRANSPORTER: inhibition of Daunorubicin transepithelial transport (basal to apical)(Daunorubicin: 0.035 uM, Testosterone: 50 uM) in MDR1-expressing LLC-PK1 cells. The following applies: pig, llc-pk1, 50 µM.

T1 sequence (P08183 whole entry): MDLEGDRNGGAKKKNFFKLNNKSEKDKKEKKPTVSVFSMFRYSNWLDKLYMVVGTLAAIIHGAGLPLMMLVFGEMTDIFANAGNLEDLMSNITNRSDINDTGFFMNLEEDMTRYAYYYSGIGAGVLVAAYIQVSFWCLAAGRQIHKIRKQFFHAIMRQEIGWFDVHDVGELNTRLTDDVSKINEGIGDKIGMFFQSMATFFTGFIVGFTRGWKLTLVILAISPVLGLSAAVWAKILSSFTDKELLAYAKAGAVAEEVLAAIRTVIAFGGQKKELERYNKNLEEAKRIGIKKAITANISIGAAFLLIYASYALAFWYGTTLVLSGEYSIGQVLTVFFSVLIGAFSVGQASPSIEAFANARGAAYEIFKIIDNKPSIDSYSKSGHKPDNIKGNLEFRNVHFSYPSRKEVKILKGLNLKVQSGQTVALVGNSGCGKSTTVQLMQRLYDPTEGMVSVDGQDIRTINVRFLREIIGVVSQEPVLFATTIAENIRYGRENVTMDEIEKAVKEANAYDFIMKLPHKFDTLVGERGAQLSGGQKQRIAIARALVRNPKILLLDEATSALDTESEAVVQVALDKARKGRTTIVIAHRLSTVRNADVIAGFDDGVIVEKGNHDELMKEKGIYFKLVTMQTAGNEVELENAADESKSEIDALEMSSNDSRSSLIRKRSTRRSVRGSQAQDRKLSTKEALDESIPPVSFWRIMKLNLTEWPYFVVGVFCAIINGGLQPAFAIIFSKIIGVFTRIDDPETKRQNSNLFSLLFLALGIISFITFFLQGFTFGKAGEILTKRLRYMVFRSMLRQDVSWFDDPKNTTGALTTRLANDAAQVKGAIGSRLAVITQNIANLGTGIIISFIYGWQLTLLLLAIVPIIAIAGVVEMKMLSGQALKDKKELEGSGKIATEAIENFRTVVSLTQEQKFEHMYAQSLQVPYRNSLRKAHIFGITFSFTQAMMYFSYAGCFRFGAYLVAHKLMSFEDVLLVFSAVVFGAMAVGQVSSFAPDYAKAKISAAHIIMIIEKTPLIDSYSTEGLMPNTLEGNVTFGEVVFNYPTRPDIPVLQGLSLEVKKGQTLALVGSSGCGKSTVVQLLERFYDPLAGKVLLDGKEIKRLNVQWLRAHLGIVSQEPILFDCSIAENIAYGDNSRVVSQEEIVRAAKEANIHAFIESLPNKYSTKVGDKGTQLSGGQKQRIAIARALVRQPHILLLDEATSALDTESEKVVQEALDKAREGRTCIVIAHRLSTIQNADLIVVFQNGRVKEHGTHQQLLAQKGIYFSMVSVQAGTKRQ

Regarding `COC(=O)c1c(C)nc(C)c(C(=O)OC)c1-c1ccccc1[N+](=O)[O-]`, the Activity result in series [1] and in [2] was “is not an inhibitor [-]” throughout. As for `Cc1ncc2n1-c1ccc(Cl)cc1C(c1ccccc1F)=NC2O` (stereo not given) [4-Hydroxymidazolam], the Activity entry in series [3] was “is not an inhibitor [-]”. As to `CN1CCCC(N2NC(Cc3ccc(Cl)cc3)c3cc(O)ccc3C2=O)CC1` (stereo not given) [6-hydroxyazelastine], the Activity result in [4] and in series [5] was “is not an inhibitor [-]” throughout. Turning to `C[C@]12CC[C@H]3[C@@H](C[C@@H](O)C4=CC(=O)CC[C@@]43C)[C@@H]1CC[C@@H]2O` [6beta-hydroxytestosterone], the Activity result in series [6] and in [7] was “is not an inhibitor [-]” in each case. Take `OCc1ncc2n1-c1ccc(Cl)cc1C(c1ccccc1F)=NC2` [ALPHA-HYDROXY-MIDAZOLAM]: the Activity entry in series [8] and in [9] was “is not an inhibitor [-]” each time. The term IC50 denotes the concentration that inhibits the measured activity by half. Low values mean greater potency in that assay, high ones weaker potency in that assay. Take `CN1CCCC(n2nc(Cc3ccc(Cl)cc3)c3ccccc3c2=O)CC1` (stereo not given) [AZELASTINE]: the 50% inhibitory concentration (IC50) in series [10] is 30 µM; in series [11], 16 µM. Consider `CCCCc1oc2ccccc2c1C(=O)c1cc(I)c(OCCNCC)c(I)c1` [DESETHYLAMIODARONE], for which the results for the IC50 in series [10] and in series [11] were 25.2 µM and 15.4 µM, respectively. For `O=c1c2ccccc2c(Cc2ccc(Cl)cc2)nn1C1CCCNCC1` (stereo not given) [DESMETHYLAZELASTINE] the same measures were 41.8 µM and 11.8 µM.

On to `Cc1ncc2n1-c1ccc(Cl)cc1C(c1ccccc1F)=NC2` [MIDAZOLAM], for which the Activity entry in series [12] and in series [13] was “is not an inhibitor [-]” each time. As to `COC(=O)C1=C(C)NC(C)=C(C(=O)OC)C1c1ccccc1[N+](=O)[O-]` [NIFEDIPINE], the Activity result in series [14] is “is not an inhibitor [-]”. In the case of `C[C@]12CC[C@H]3[C@@H](CCC4=CC(=O)CC[C@@]43C)[C@@H]1CC[C@@H]2O` [TESTOSTERONE], the Activity entry in series [15] and in [16] was “is not an inhibitor [-]” in each case.
